Assay results as given in patent US20090181931A1, “ANTIVIRAL ACTIVITY OF CIDOFOVIR AGAINST ONCOLYTIC VIRUSES” (priority 2008, published 2009).
Values joined by “and” are separate entries in the source; they are usually repeats but may differ in a detail not shown here. Identical values can stand only once.

Assays:
Assay type in all cases: cell-based, adenovirus
Telomelysin (OBP-301) [1] = test: XTT assay, protection from cytopathic effect of Telomelysin in H1299 cells; settings: for Protection (%) Ave. / Protection (%): Telomelysin MOI 1, H1299, 7 days; for Protection (%): single wells, dihydrate
Experimental: (§1) Cells frozen in liquid nitrogen were thawed in water bath at 37° C., seeded at T25 flask, and cultured at 70-90% sub-confluent monolayer. Cells were detached with trypsin, and prepared suspension at a concentration of 1.0×10^4 cells/ml.
(§2) Cells were seeded in 96 well-plate (100 μL/well, 1000 cells/well), then cultured with 5% CO2 at 37° C.
(§3) Viruses were diluted at MOI of 1 (OBP-301, OBP-202) in H1299 and 5 in A549 (PFU/cell). Medium in each well was removed, 150 μL of diluted virus solution was added to each well of the plate. 2 hours later, medium was aspirated and replaced with fresh medium containing 2% FCS and serially diluted CDV. Cells were incubated with 5% CO2 at 37° C. for 7 days after infection.
(§4) 100 μL of PBS, 50 μL of XTT labeling reagent, and 1 μL of ion coupling reagent per well of plate were mixed.
(§5) Medium in each well of plate was removed, and 150 μL of mixture prepared above was added to each well. Plate was incubated with 5% CO2 at 37° C. for 4 hours, and then calculated absorbance at 450 nm and 690 nm. Protection was determined by the formula below:
(§6) Protection(%)={OD(AdV(+):CDV(+))−OD(AdV(+):CDV(−))}/{OD(AdV(−):CDV(+))−OD(AdV(+):CDV(−))}×100.

Telomelysin (OBP-301) [2] = test: XTT assay, protection from cytopathic effect of Telomelysin in A549 cells; settings: for Protection (%) Ave. / Protection (%): Telomelysin MOI 5, A549, 7 days; for Protection (%): single wells, dihydrate
Experimental: as §1, §2, §3, §4, §5, §6

TelomeScan (OBP-401) = test: XTT assay, protection from cytopathic effect of TelomeScan (OBP-401) in H1299 cells; settings: for Protection (%) Ave. / Protection (%): OBP-401 MOI 0.1, H1299, 7 days; for Protection (%): single wells, dihydrate
Experimental: as §1, §2
(§7) Viruses were diluted at MOI of 0.1 (OBP-401) or 10 (ONYX-015) in H1299. Medium in each well was removed, 50 μL of diluted virus solution was added to each well of the plate. 2 hours later, medium was aspirated and replaced with fresh medium containing 2% FCS and serially diluted CDV. Cells were incubated with 5% CO2 at 37° C. for 7 days after infection.
as §4, §5, §6

ONYX-015 [3] = test: XTT assay, protection from cytopathic effect of ONYX-015 in H1299 cells; settings: for Protection (%) Ave. / Protection (%): ONYX-015 MOI 10, H1299, 7 days; for Protection (%): single wells, dihydrate
Experimental: as §1, §2, §7, §4, §5, §6

ONYX-015 [4] = test: Real-time quantitative PCR, viral E1A copy number, ONYX-015 in H1299 cells; settings: for E1A copy number, % (relative to 0 uM) / E1A copy number/ng DNA: ONYX-015 MOI 10, H1299, 24 hours
Experimental: Cells were seeded in 6-well plate (2 mL/well, 2×10^5 cells/well), and incubated with 5% CO2 at 37° C.
Viruses were diluted at a MOI of 10. Medium in each well was removed, 500 μL of diluted virus solution was added to each well of the plate. Plates were incubated with 5% CO2 at 37° C. for 2 hours with gently shaking every 15 minutes. Medium was aspirated, washed with PBS twice, and replaced with fresh medium containing 2% FCS and serially diluted CDV. Cells were incubated with 5% CO2 at 37° C. for 24 hours after infection.
Cells were detached with Trypsin-EDTA, and collected by centrifuging. Total DNA was extracted using QIAamp™ DNA Mini Kit according to manufacture's instructions with some modifications: addition of 20 μL of RNaseA in each sample when adding ProK. DNA was eluted by 50˜100 μL of D. W.
Concentration of DNA was determined by measuring O.D.260. Each DNA samples was diluted by D. W. at a concentration of 5 ng/μL.
Master-mix for E1A primer was prepared using LightCycler™ Faststart DNAMaster SYBR Green™ according to Table 1. Standard DNA was prepared by serially 10 times dilution of pCRII-E1A plasmid (1×10^9, 1×10^8, 1×10^7, 1×10^6, 1×10^5, 1×10^4, and 1×10^3 copies/μL). 2 μL of Sample or Standard DNA was and 18 μL of Master mix were added into capillaries (total volume was 20 μL per capillary).
Q-PCR was performed according to the program of Table 2 (LightCycler quicksystem 350S). Results obtained here were analyzed using LightCycler softwere.

Compound: Nc1ccn(C[C@@H](CO)OCP(=O)(O)O)c(=O)n1.O.O [CDV, 1-[(S)-3-hydroxy-2-(phosphonomethoxy)propyl]cytosine dihydrate]
- Protection (%) Ave. (Telomelysin (OBP-301) [1]; CDV 0.32 μM): 7.983%
- Protection (%) (Telomelysin (OBP-301) [1]; CDV 0.32 μM): 10.293% and 11.665% and 3.980% and 5.993%
- Protection (%) Ave. (Telomelysin (OBP-301) [1]; CDV 1.6 μM): 0.274%
- Protection (%) (Telomelysin (OBP-301) [1]; CDV 1.6 μM): 3.339% and −5.901% and 1.144% and 2.516%
- Protection (%) Ave. (Telomelysin (OBP-301) [1]; CDV 8 μM): 3.065%
- Protection (%) Ave. (Telomelysin (OBP-301) [1]; CDV 40 μM): 83.829%
- Protection (%) (Telomelysin (OBP-301) [1]; CDV 40 μM): 88.243% and 72.049% and 84.950% and 90.073%
- Protection (%) Ave. (Telomelysin (OBP-301) [1]; CDV 200 μM): 29.369%
- Protection (%) (Telomelysin (OBP-301) [1]; CDV 200 μM): 29.414% and 30.878% and 28.957% and 28.225%
- Telomelysin-mediated cytopathic effect (Telomelysin (OBP-301) [1]; H1299 cells, FIG. 1A): apparently inhibited
- EC50 (Telomelysin (OBP-301) [1]; NCI-H1299, Telomelysin, H1299 cells, XTT, read-out: EC50, CDV concentration that archive the protection to 50%): 20.4 µM
- Telomelysin-mediated cytopathic effect (Telomelysin (OBP-301) [2]; A549 cells, FIG. 1A): apparently inhibited
- Protection (%) Ave. (Telomelysin (OBP-301) [2]; CDV 10 μM): 1.376%
- Protection (%) (Telomelysin (OBP-301) [2]; CDV 10 μM): 1.991% and 0.387% and 1.136%
- Protection (%) Ave. (Telomelysin (OBP-301) [2]; CDV 20 μM): 7.535%
- Protection (%) (Telomelysin (OBP-301) [2]; CDV 20 μM): 7.548% and 4.342% and 7.388% and 10.862%
- Protection (%) Ave. (Telomelysin (OBP-301) [2]; CDV 30 μM): 40.094%
- Protection (%) (Telomelysin (OBP-301) [2]; CDV 30 μM): 41.269% and 33.413% and 44.208% and 41.483%
- Protection (%) Ave. (Telomelysin (OBP-301) [2]; CDV 40 μM): 56.713%
- Protection (%) (Telomelysin (OBP-301) [2]; CDV 40 μM): 61.951% and 52.118% and 53.881% and 58.904%
- Protection (%) Ave. (Telomelysin (OBP-301) [2]; CDV 50 μM): 61.202%
- Protection (%) (Telomelysin (OBP-301) [2]; CDV 50 μM): 69.539% and 54.148% and 62.592% and 58.530%
- Protection (%) Ave. (Telomelysin (OBP-301) [2]; CDV 60 μM): 67.295%
- Protection (%) (Telomelysin (OBP-301) [2]; CDV 60 μM): 68.310% and 63.768% and 66.440% and 70.661%
- Protection (%) Ave. (Telomelysin (OBP-301) [2]; CDV 70 μM): 62.538%
- Protection (%) (Telomelysin (OBP-301) [2]; CDV 70 μM): 66.226% and 58.424% and 61.844% and 63.661%
- Protection (%) Ave. (Telomelysin (OBP-301) [2]; CDV 80 μM): 56.740%
- Protection (%) (Telomelysin (OBP-301) [2]; CDV 80 μM): 54.790% and 51.637% and 59.279% and 61.256%
- Protection (%) Ave. (Telomelysin (OBP-301) [2]; CDV 90 μM): 49.806%
- Protection (%) (Telomelysin (OBP-301) [2]; CDV 90 μM): 51.423% and 50.514% and 50.942% and 46.346%
- Protection (%) Ave. (Telomelysin (OBP-301) [2]; CDV 100 μM): 38.090%
- Protection (%) (Telomelysin (OBP-301) [2]; CDV 100 μM): 33.948% and 41.590% and 36.834% and 39.987%
- EC50 (Telomelysin (OBP-301) [2]; Telomelysin, A549 cells, XTT, read-out: EC50, CDV concentration that archive the protection to 50%): 35.9 µM
- Protection (%) Ave. (TelomeScan (OBP-401); CDV 0.01 μM): −0.229%
- Protection (%) (TelomeScan (OBP-401); CDV 0.01 μM): −1.063% and 0.309% and −0.240% and 0.080%
- Protection (%) Ave. (TelomeScan (OBP-401); CDV 0.06 μM): 0.057%
- Protection (%) (TelomeScan (OBP-401); CDV 0.06 μM): −0.423% and −0.514% and 1.589%
- Protection (%) Ave. (TelomeScan (OBP-401); CDV 0.32 μM): 0.171%
- Protection (%) (TelomeScan (OBP-401); CDV 0.32 μM): 0.400% and 0.674% and −0.789%
- Protection (%) Ave. (TelomeScan (OBP-401); CDV 1.6 μM): 1.931%
- Protection (%) (TelomeScan (OBP-401); CDV 1.6 μM): 3.006% and −0.057% and 2.594% and 2.183%
- Protection (%) Ave. (TelomeScan (OBP-401); CDV 8 μM): 0.469%
- Protection (%) (TelomeScan (OBP-401); CDV 8 μM): 3.280% and 0.263% and −0.743% and −0.926%
- Protection (%) Ave. (TelomeScan (OBP-401); CDV 40 μM): 40.926%
- Protection (%) Ave. (TelomeScan (OBP-401); CDV 200 μM): 15.154%
- Protection (%) Ave. (TelomeScan (OBP-401); CDV 1000 μM): 1.463%
- Protection (%) (TelomeScan (OBP-401); CDV 1000 μM): 0.446% and 0.537% and 3.554% and 1.314%
- cytopathic effect induced by TelomeScan (TelomeScan (OBP-401); H1299 cells, FIG. 2A): apparently inhibited
- Protection (%) Ave. (ONYX-015 [3]; CDV 0.01 μM): −1.092%
- Protection (%) (ONYX-015 [3]; CDV 0.01 μM): −1.284% and −1.233% and −0.822% and −1.027%
- Protection (%) Ave. (ONYX-015 [3]; CDV 0.06 μM): −0.642%
- Protection (%) (ONYX-015 [3]; CDV 0.06 μM): −0.616% and −0.205% and 0.051% and −1.798%
- Protection (%) Ave. (ONYX-015 [3]; CDV 0.32 μM): 1.516%
- Protection (%) (ONYX-015 [3]; CDV 0.32 μM): 3.237% and 4.675% and −0.205% and −1.644%
- Protection (%) Ave. (ONYX-015 [3]; CDV 1.6 μM): 2.646%
- Protection (%) (ONYX-015 [3]; CDV 1.6 μM): 4.315% and 1.849% and −1.079% and 5.497%
- Protection (%) Ave. (ONYX-015 [3]; CDV 8 μM): 5.703%
- Protection (%) Ave. (ONYX-015 [3]; CDV 40 μM): 55.420%
- Protection (%) (ONYX-015 [3]; CDV 40 μM): 50.912% and 58.926% and 55.536% and 56.306%
- Protection (%) Ave. (ONYX-015 [3]; CDV 200 μM): 11.264%
- Protection (%) (ONYX-015 [3]; CDV 200 μM): 10.121% and 16.902% and 9.350% and 8.682%
- Protection (%) Ave. (ONYX-015 [3]; CDV 1000 μM): −0.783%
- Protection (%) (ONYX-015 [3]; CDV 1000 μM): −2.312% and −2.260% and −2.363% and 3.802%
- cytopathic effect induced by ONYX-015 (ONYX-015 [3]; H1299 cells, FIG. 2A): apparently inhibited
- E1A copy number, % (relative to 0 uM) (ONYX-015 [4]; CDV 0.16 uM): 86.98%
- E1A copy number/ng DNA (ONYX-015 [4]; CDV 0.16 uM): 2.291E+07 copy number/ng DNA
- E1A copy number, % (relative to 0 uM) (ONYX-015 [4]; CDV 0.8 uM): 91.04%
- E1A copy number/ng DNA (ONYX-015 [4]; CDV 0.8 uM): 2.398E+07 copy number/ng DNA
- E1A copy number, % (relative to 0 uM) (ONYX-015 [4]; CDV 4 uM): 83.71%
- E1A copy number/ng DNA (ONYX-015 [4]; CDV 4 uM): 2.205E+07 copy number/ng DNA
- E1A copy number, % (relative to 0 uM) (ONYX-015 [4]; CDV 20 uM): 45.10%
- E1A copy number/ng DNA (ONYX-015 [4]; CDV 20 uM): 1.188E+07 copy number/ng DNA
- E1A copy number, % (relative to 0 uM) (ONYX-015 [4]; CDV 100 uM): 11.20%
- E1A copy number/ng DNA (ONYX-015 [4]; CDV 100 uM): 2.950E+06 copy number/ng DNA
- Viral E1A copy number (ONYX-015 [4]; ONYX-015, H1299 cells, dose-dependent manner): reduced
